Reference: patent publication US12643912B2, “Macrocyclic compounds, a process for their preparation and pharmaceutical compositions containing them” (LES LABORATOIRES SERVIER, priority 2020, dated 2026)

Tested on: Nrf2 (Keap1-NRF2 nuclear translocation)
Assay: U2OS translocation assay (PathHunter U2OS Keap1-NRF2 Nuclear Translocation Cell Line)
Format: cell-based
Conditions: Homo sapiens, U2OS, 3 h, read-out: CELLULAR U2OS EC50 (nM), U2OS Keap1-NRF2 nuclear translocation cells, 3 h incubation, luminescence, normalized between 1% DMSO and 10 μM andrographolide
Description: EXAMPLE 84: U2OS—TRANSLOCATION ASSAY
U2OS cell have been stably transduced using MMLV-derived retroviral vector, to overexpress Nrf2-Enzyme Donor fusion protein, and Acceptor Enzyme in the nucleus (PathHunter® U2OS Keap1-NRF2 Nuclear Translocation Cell Line, Ref.93-0821C3, DiscoverX).
PathHunter U2OS cells were grown in Minimum Essential Medium (MEM) (Ref.30-2003, ATCC), 10% FBS (Ref.P30-193306, PanBiotech), 500 μg/ml Geneticine, 250 μg/ml hygromycine, 0.25 μg/ml puromycine (10131-027, 10687-010 and Ref.A1113802 respectively, Life Technologies).
The night before experiment, cells were harvested using Tryple Xpress (Ref.126905, Bibco) for 5 min at 37° C., resuspended in Opti-MEM™ (Ref.31985-047, Gibco), 1% FBS (Ref.P30-193306, PanBiotech) and then plated into 384 wells plates (Ref.6007680, Perkin Elmer) at the density of 7 500 cells/well in 20 μl. Cell are stored over night at 37° C., 5% CO2 until used. Compounds in 100% DMSO (0.315 μl/well) were resuspended in 20 μl MEM, 1% FBS, 3.4% DMSO. Compounds and andrographolide (10 μM final concentration; Ref.365645-500MG, Aldrich)) as positive control, were dispensed on cell, 5 μl /well, and then incubated for 3 h at 37° C. and 5% CO2. After incubation, Path hunter reagents were dispensed on cells (12 μl /well, Ref.93-0001, DiscoverX) and incubated for 60 min at room temperature in the dark.
Then, luminescence signal was measured using multimodal reader (Pherastar, BMG Labtech). Data were normalized between 1% DMSO (basal signal) and 10 μM andrographolide (positive signal) and analyzed using Activity Base software.

Q: How did the EC50 turn out when `Cc1ccc2cc1[C@@H](C)N1Cc3cc(ccc3OS1(=O)=O)OC[C@@H](O)CCn1nnc3c(C)c(ccc31)[C@H]2CC(=O)O` [Example 46a, [(2R,8RS,19S)-19-Hydroxy-2,4,31-trimethyl-27,27-dioxo-21,26-dioxa-27λ^6-thia-1,14,15,16-tetraazahexacyclo[20.5.3.1^3,70.1^9,130.0^12,160.0^25,29]dotriaconta-3(32),4,6,9(31),10,12,14,22,24,29-decaen-8-yl]acetic acid] was run?
A: Its EC50 is 228 nM.

Q: With `Cc1ccc2cc1[C@@H](C)N1Cc3cc(ccc3OS1(=O)=O)OC[C@@H](O)CCn1nnc3c(C)c(ccc31)[C@@H]2CC(=O)O` [Example 46b, [(2R,8RS,19S)-19-hydroxy-2,4,31-trimethyl-27,27-dioxo-21,26-dioxa-27λ^6-thia-1,14,15,16-tetraazahexacyclo[20.5.3.1^3,70.1^9,130.0^12,160.0^25,29]dotriaconta-3(32),4,6,9(31),10,12,14,22,24,29-decaen-8-yl]acetic acid] as the molecule, how does the EC50 read?
A: Its EC50 is 792 nM.

Q: With `COc1ccc2cc1CN1Cc3cc(ccc3OS1(=O)=O)OCCN(C)CCCCn1nnc3c(C)c(ccc31)C2CC(=O)O` (centres unmarked) [Example 47] as the molecule, how does the EC50 read?
A: The EC50 was 288 nM.

Q: With `Cc1ccc2cc1CN1Cc3cc(ccc3OS1(=O)=O)OCCCCn1nnc3c(C)c(cc(Br)c31)[C@@H]2CC(=O)O` [Example 48, [(8R)-11-Bromo-4,31-dimethyl-27,27-dioxo-21,26-dioxa-27λ^6-thia-1,14,15,16-tetraazahexacyclo[20.5.3.1^3,70.1^9,130.0^12,160.0^25,29]dotriaconta-3(32),4,6,9(31),10,12,14,22,24,29-decaen-8-yl]acetic acid] as the molecule, how does the EC50 read?
A: The EC50 was 198 nM.

Q: How did the EC50 turn out when `COc1ccc2cc1CN1Cc3cc(ccc3OS1(=O)=O)OCCOCCn1nnc3c(C)c(ccc31)C2CC(=O)O` (centres unmarked) [Example 59b, [4-Methoxy-32-methyl-28,28-dioxo-19,22,27-trioxa-28λ^6-thia-1,14,15,16-tetraazahexacyclo[21.5.3.1^3,70.1^9,130.0^12,160.0^26,30]tritriaconta-3(33),4,6,9(32),10,12,14,23,25,30-decaen-8-yl]acetic acid] was run?
A: Its EC50 is 1760 nM.

Q: How did the EC50 turn out when `Cc1ccc2cc1CN1Cc3cc(ccc3OS1(=O)=O)OCc1ccccc1CCn1nnc3c(C)c(ccc31)C2CC(=O)O` (centres unmarked) [Example 62b, [4,36-Dimethyl-32,32-dioxo-26,31-dioxa-32λ^6-thia-1,14,15,16-tetraazaheptacyclo[25.5.3.1^3,70.1^9,130.0^12,160.0^19,240.0^30,34]heptatriaconta-3(37),4,6,9(36),10,12,14,19,21,23,27,29,34-tridecaen-8-yl]acetic acid] was run?
A: Its EC50 is greater than 3160 nM.

Q: Which EC50 does the source give for `Cc1ccc2cc1CN1Cc3cc(ccc3OS1(=O)=O)OCCSCCn1nnc3c(C)c(ccc31)C2CC(=O)O` (centres unmarked) [Example 63b, [4,32-Dimethyl-28,28-dioxo-22,27-dioxa-19,28λ^6-dithia-1,14,15,16-tetraazahexacyclo[21.5.3.1^3,70.1^9,130.0^12,160.0^26,30]tritriaconta-3(33),4,6,9(32),10,12,14,23,25,30-decaen-8-yl]acetic acid] here?
A: Its EC50 is 1220 nM.

Q: `Cc1c2ccc3c1nnn3CCCCOc1ccc3c(c1)CN([C@H](C)c1cc(ccc1Cl)[C@H]2CC(=O)O)S(=O)(=O)O3` [Example 64b, [(2R,8R)-4-chloro-2,31-dimethyl-27,27-dioxo-21,26-dioxa-27λ^6-thia-1,14,15,16-tetraazahexacyclo[20.5.3.1^3,70.1^9,130.0^12,160.0^25,29]dotriaconta-3(32),4,6,9(31),10,12,14,22,24,29-decaen-8-yl]acetic acid] was tested. Which EC50 did it give?
A: The EC50 was 231 nM.

Q: `Cc1ccc2cc1CN1Cc3cc(ccc3OS1(=O)=O)OCCC(c1ccc(C(F)(F)F)cc1)Cn1nnc3c(C)c(ccc31)C2CC(=O)O` (centres unmarked) [Example 65, {4,31-Dimethyl-27,27-dioxo-18-[4-(trifluoromethyl)phenyl]-21,26-dioxa-27λ^6-thia-1,14,15,16-tetraazahexacyclo[20.5.3.1^3,70.1^9,130.0^12,160.0^25,29]dotriaconta-3(32),4,6,9(31),10,12,14,22,24,29-decaen-8-yl}acetic acid] was tested. Which EC50 did it give?
A: The EC50 was 699 nM.

Q: How did the EC50 turn out when `Cc1ccc2cc1CN1Cc3cc(ccc3OS1(=O)=O)Oc1ccccc1NCCCn1nnc3c(C)c(ccc31)C2CC(=O)O` (centres unmarked) [Example 71b, [4,37-Dimethyl-33,33-dioxo-27,32-dioxa-33λ^6-thia-1,14,15,16,20-pentaazaheptacyclo[26.5.3.1^3,70.1^9,130.0^12,160.0^21,260.0^31,35]octatriaconta-3(38),4,6,9(37),10,12,14,21,23,25,28,30,35-tridecaen-8-yl]acetic acid] was run?
A: Its EC50 is 570 nM.

Q: Which EC50 does the source give for `Cc1ccc2cc1CN1Cc3cc(c(Cl)cc3OS1(=O)=O)OCCOCCn1nnc3c(C)c(ccc31)C2CC(=O)O` (centres unmarked) [Example 75, [24-Chloro-4,32-dimethyl-28,28-dioxo-19,22,27-trioxa-28λ^6-thia-1,14,15,16-tetraazahexacyclo[21.5.3.1^3,70.1^9,130.0^12,160.0^26,30]tritriaconta-3(33),4,6,9(32),10,12,14,23,25,30-decaen-8-yl]acetic acid] here?
A: The EC50 was 59.6 nM.

Q: For `Cc1ccc2cc1CN1Cc3cc(ccc3OS1(=O)=O)OCCn1nnc3c(C)c(ccc31)C2CC(=O)O` (centres unmarked) [Example 77a, [4,29-Dimethyl-25,25-dioxo-19,24-dioxa-25λ^6-thia-1,14,15,16-tetraazahexacyclo[18.5.3.1^3,70.1^9,130.0^12,160.0^23,27]triaconta-3(30),4,6,9(29),10,12,14,20,22,27-decaen-8-yl]acetic acid], which EC50 is on record?
A: The EC50 was 1750 nM.

Q: How did the EC50 turn out when `Cc1ccc2cc1CN1Cc3cc(ccc3OS1(=O)=O)OCCCCn1nnc3c(C)c(ccc31)[C@@H]2CC(=O)Nc1cncnc1` [Example 79a, 2-[(8R)-4,31-Dimethyl-27,27-dioxo-21,26-dioxa-27λ^6-thia-1,14,15,16-tetraazahexacyclo[20.5.3.1^3,70.1^9,130.0^12,160.0^25,29]dotriaconta-3(32),4,6,9(31),10,12,14,22,24,29-decaen-8-yl]-N-(pyrimidin-5-yl)acetamide] was run?
A: Its EC50 is 1120 nM.

Q: For `Cc1ccc2cc1CN1Cc3cc(ccc3OS1(=O)=O)OCCCCn1nnc3c(C)c(ccc31)[C@H]2CC(=O)Nc1cncnc1` [Example 79b, 2-[(8S)-4,31-dimethyl-27,27-dioxo-21,26-dioxa-27λ^6-thia-1,14,15,16-tetraazahexacyclo[20.5.3.1^3,70.1^9,130.0^12,160.0^25,29]dotriaconta-3(32),4,6,9(31),10,12,14,22,24,29-decaen-8-yl]-N-(pyrimidin-5-yl)acetamide], which EC50 is on record?
A: The EC50 was 296 nM.

Q: `Cc1ccc2cc1CN1Cc3cc(ccc3OS1(=O)=O)OCCCCn1nnc3c(C)c(ccc31)[C@H]2CC(=O)Nc1cccnc1` [Example 80a, 2-[(8S)-4,31-Dimethyl-27,27-dioxo-21,26-dioxa-27λ^6-thia-1,14,15,16-tetraazahexacyclo[20.5.3.1^3,70.1^9,130.0^12,160.0^25,29]dotriaconta-3(32),4,6,9(31),10,12,14,22,24,29-decaen-8-yl]-N-(pyridin-3-yl)acetamide] was tested. Which EC50 did it give?
A: Its EC50 is 596 nM.

Q: `Cc1ccc2cc1CN1Cc3cc(ccc3OS1(=O)=O)OCCCCn1nnc3c(C)c(ccc31)[C@@H]2CC(=O)Nc1cccnc1` [Example 80b, 2-[(8R)-4,31-dimethyl-27,27-dioxo-21,26-dioxa-27λ^6-thia-1,14,15,16-tetraazahexacyclo[20.5.3.1^3,70.1^9,130.0^12,160.0^25,29]dotriaconta-3(32),4,6,9(31),10,12,14,22,24,29-decaen-8-yl]-N-(pyridin-3-yl)acetamide] was tested. Which EC50 did it give?
A: Its EC50 is 2700 nM.

Same assay, conditions: read-out: CELLULAR U2OS EC50; U2OS Keap1-NRF2 nuclear translocation cells, 3 h incubation, luminescence, normalized between 1% DMSO and 10 μM andrographolide

Q: For `Cc1ccc2cc1CN1Cc3cc(ccc3OS1(=O)=O)OCCn1nnc3c(C)c(ccc31)C2CC(=O)O` (centres unmarked) [Example 77b, [4,29-Dimethyl-25,25-dioxo-19,24-dioxa-25λ^6-thia-1,14,15,16-tetraazahexacyclo[18.5.3.1^3,70.1^9,130.0^12,160.0^23,27]triaconta-3(30),4,6,9(29),10,12,14,20,22,27-decaen-8-yl]acetic acid], which EC50 is on record?
A: The EC50 was greater than 3160 nM.
